From patent US20210254056A1, “IDENTIFICATION AND TARGETED MODULATION OF GENE SIGNALING NETWORKS” (CAMP4 THERAPEUTICS CORPORATION, priority 2017, published 2021)

System: hepatocytes
Experiment: RNA-seq of hepatocytes treated with Phase III failure compounds
Conditions: hepatocytes
Experimental: RNA-seq was performed to determine the effects of the compounds on hepatocytes.
Significance was determined by the criteria of FPKM≥0.5, a log 2(fold-change)≥1, and a […].

## CCC(CC)[C@H](NC(C)=O)[C@@H]1[C@H](O)[C@@H](C(=O)O)C[C@H]1NC(=N)N.O.O.O [peramivir (trihydrate), peramivir]
Gene PTRH2
  RNA-seq results, PTRH2: 0.15
  RNA-seq results: PTRH2: −0.47
Gene PUS1
  RNA-seq results, PUS1: 0.16
  RNA-seq results: PUS1: 0.29
Gene PXMP2
  RNA-seq results, PXMP2: 0.19
  RNA-seq results: PXMP2: −0.29
Gene PXMP4
  RNA-seq results, PXMP4: 0.22
  RNA-seq results: PXMP4: −0.05
Gene RAI1
  RNA-seq results, RAI1: 0.12
  RNA-seq results: RAI1: 0.38
Gene RANBP2
  RNA-seq results, RANBP2: −0.29
  RNA-seq results: RANBP2: −0.16
Gene RASA1
  RNA-seq results, RASA1: −0.13
  RNA-seq results: RASA1: −0.26
Gene RBCK1
  RNA-seq results, RBCK1: 0.64
  RNA-seq results: RBCK1: 0.26
Gene RBM10
  RNA-seq results, RBM10: 0.13
  RNA-seq results: RBM10: 0.11
Gene REN
  RNA-seq results, REN: 0
  RNA-seq results: REN: 0.46
Gene RMND1
  RNA-seq results, RMND1: −0.07
  RNA-seq results: RMND1: −0.47
Gene RMRP
  RNA-seq results, RMRP: 0.54
  RNA-seq results: RMRP: −1.76
Gene RNASEH2A
  RNA-seq results, RNASEH2A: 0.54
  RNA-seq results: RNASEH2A: −0.19
Gene RORC
  RNA-seq results, RORC: 0.4
  RNA-seq results: RORC: 0.58
Gene RPGRIP1L
  RNA-seq results, RPGRIP1L: −0.2
  RNA-seq results: RPGRIP1L: −0.12
Gene RRM2B
  RNA-seq results, RRM2B: −0.53
  RNA-seq results: RRM2B: −0.34
Gene RSAD1
  RNA-seq results, RSAD1: 0.1
  RNA-seq results: RSAD1: 0.11
Gene SAMHD1
  RNA-seq results, SAMHD1: −0.29
  RNA-seq results: SAMHD1: −0.43
Gene SC5D
  RNA-seq results, SC5D: 0.05
  RNA-seq results: SC5D: −0.56
Gene SCARB1
  RNA-seq results, SCARB1: 0.12
  RNA-seq results: SCARB1: 0.11
Gene SCN9A
  RNA-seq results, SCN9A: −0.56
  RNA-seq results: SCN9A: −0.09
Gene SDCCAG8
  RNA-seq results, SDCCAG8: −0.12
  RNA-seq results: SDCCAG8: −0.10
Gene SEPN1
  RNA-seq results, SEPN1: 0.26
  RNA-seq results: SEPN1: −0.02
Gene SERAC1
  RNA-seq results, SERAC1: −0.1
  RNA-seq results: SERAC1: −0.34
Gene SERPINA1
  RNA-seq results, SERPINA1: −0.03
  RNA-seq results: SERPINA1: −0.16
Gene SERPING1
  RNA-seq results, SERPING1: 0.12
  RNA-seq results: SERPING1: −0.27
Gene SERPINI1
  RNA-seq results, SERPINI1: −0.33
  RNA-seq results: SERPINI1: −0.37
Gene SETBP1
  RNA-seq results, SETBP1: −0.1
  RNA-seq results: SETBP1: 0.05
Gene SFXN4
  RNA-seq results, SFXN4: 0.09
  RNA-seq results: SFXN4: −0.17
Gene SLC2A1
  RNA-seq results, SLC2A1: 0.56
  RNA-seq results: SLC2A1: 0.08
Gene SLC2A2
  RNA-seq results, SLC2A2: −0.62
  RNA-seq results: SLC2A2: −0.24
Gene SLC2A9
  RNA-seq results, SLC2A9: 0.24
  RNA-seq results: SLC2A9: 0.16
Gene SLC4A4
  RNA-seq results, SLC4A4: −0.08
  RNA-seq results: SLC4A4: −0.30
Gene SLC6A6
  RNA-seq results, SLC6A6: 0.1
  RNA-seq results: SLC6A6: −0.29
Gene SLC6A8
  RNA-seq results, SLC6A8: 0.26
  RNA-seq results: SLC6A8: 0.27
Gene SLC6A20
  RNA-seq results, SLC6A20: 0.4
  RNA-seq results: SLC6A20: −0.44
Gene SLC7A7
  RNA-seq results, SLC7A7: −0.01
  RNA-seq results: SLC7A7: 0.03
Gene SLC10A1
  RNA-seq results, SLC10A1: −0.05
  RNA-seq results: SLC10A1: −0.14
Gene SLC10A3
  RNA-seq results, SLC10A3: 0.11
  RNA-seq results: SLC10A3: 0.57
Gene SLC10A5
  RNA-seq results, SLC10A5: −0.66
  RNA-seq results: SLC10A5: 0.46
Gene SLC10A7
  RNA-seq results, SLC10A7: −0.13
  RNA-seq results: SLC10A7: −0.54
Gene SLC11A2
  RNA-seq results, SLC11A2: 0.08
  RNA-seq results: SLC11A2: 0.04
Gene SLC19A1
  RNA-seq results, SLC19A1: 0.2
  RNA-seq results: SLC19A1: 0.05
Gene SLC19A2
  RNA-seq results, SLC19A2: 0.09
  RNA-seq results: SLC19A2: −0.17
Gene SLC19A3
  RNA-seq results, SLC19A3: 0
  RNA-seq results: SLC19A3: −0.16
Gene SLC22A1
  RNA-seq results, SLC22A1: 0.13
  RNA-seq results: SLC22A1: −0.12
Gene SLC22A5
  RNA-seq results, SLC22A5: 0.12
  RNA-seq results: SLC22A5: −0.16
Gene SLC25A1
  RNA-seq results, SLC25A1: 0.16
  RNA-seq results: SLC25A1: 0.33
Gene SLC25A10
  RNA-seq results, SLC25A10: 0.09
  RNA-seq results: SLC25A10: 0.12
Gene SLC25A12
  RNA-seq results, SLC25A12: 0.29
  RNA-seq results: SLC25A12: 0.27
Gene SLC25A13
  RNA-seq results, SLC25A13: 0.11
  RNA-seq results: SLC25A13: −0.17
Gene SLC25A15
  RNA-seq results, SLC25A15: −0.01
  RNA-seq results: SLC25A15: 0.03
Gene SLC25A19
  RNA-seq results, SLC25A19: −0.01
  RNA-seq results: SLC25A19: −0.19
Gene SLC25A20
  RNA-seq results, SLC25A20: −0.1
  RNA-seq results: SLC25A20: −0.32
Gene SLC25A29
  RNA-seq results, SLC25A29: 0.22
  RNA-seq results: SLC25A29: 0.65
Gene SLC25A32
  RNA-seq results, SLC25A32: −0.09
  RNA-seq results: SLC25A32: −0.32
Gene SLC27A2
  RNA-seq results, SLC27A2: −0.21
  RNA-seq results: SLC27A2: −0.36
Gene SLC27A5
  RNA-seq results, SLC27A5: 0.25
  RNA-seq results: SLC27A5: 0.13
Gene SLC29A3
  RNA-seq results, SLC29A3: 0.07
  RNA-seq results: SLC29A3: −0.02
Gene SLC33A1
  RNA-seq results, SLC33A1: 0.02
